Experimental data taken from patent US20130102631A1, “NOVEL MICROBIOCIDAL DIOXIME ETHER DERIVATIVES” (SYNGENTA CROP PROTECTION LLC, priority 2010, published 2013).

Experiments:
[1] = tested on: Thanatephorus cucumeris (Rhizoctonia solani); assay: Thanatephorus cucumeris (Rhizoctonia solani) / liquid culture (foot rot, damping-off); format: cell-based; settings: at ≦200 ppm, liquid culture PDB, inhibition of growth photometrically 3-4 days after application, read-out: control of Thanatephorus cucumeris
Procedure: Thanatephorus cucumeris (Rhizoctonia solani)/Liquid Culture (Foot Rot, Damping-Off Mycelia fragments of a newly grown liquid culture of the fungus are directly mixed into nutrient broth (PDB potato dextrose broth). After placing a DMSO solution of the test compounds into a 96-well microtiter, the nutrient broth containing the fungal material was added. The test plates were incubated at 24° C. and the inhibition of growth was determined photometrically 3-4 days after application. […]-2.508 5.561; 2.561; P.57; 2.513; 2.559; 2.558; 2.553; 2.533; 2.530; 2.526; 2.519; 2.517; 2.516; 2.514; 2.512; 2.514

[2] = tested on: Mycosphaerella graminicola (Septoria tritici); assay: Mycosphaerella graminicola (Septoria tritici) / liquid culture (Septoria blotch); format: cell-based; settings: Zymoseptoria tritici; at ≦200 ppm, liquid culture PDB, inhibition of growth photometrically 4-5 days after application; read-out: control of Mycosphaerella graminicola
[3] = tested on: Mycosphaerella arachidis (Cercospora arachidicola); assay: Mycosphaerella arachidis (Cercospora arachidicola) / liquid culture (early leaf spot); format: cell-based; settings: at ≦200 ppm, liquid culture PDB, inhibition of growth photometrically 4-5 days after application, read-out: control of Mycosphaerella arachidis
Method in brief: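 Cryostored Cercospora arachidicola conidia were mixed into potato dextrose broth and added to test compound in DMSO. Incubation was at 24° C. Growth inhibition was read photometrically 4-5 days after application.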

[4] = tested on: Monographella nivalis (Microdochium nivale); assay: Monographella nivalis (Microdochium nivale) / liquid culture (foot rot cereals); format: cell-based; settings: at ≦200 ppm, liquid culture PDB, inhibition of growth photometrically 4-5 days after application, read-out: control of Monographella nivalis
Method in brief: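 Microdochium nivale conidia in potato dextrose broth added to compound delivered in DMSO, then incubated at 24 °C. Growth inhibition measured photometrically 4-5 days after application.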

[5] = tested on: Puccinia recondita f. sp. tritici; assay: Puccinia recondita f. sp. tritici / wheat / leaf disc preventative (brown rust); format: in vivo; settings: foliar, wheat leaf segments cv Kanzler, inoculated 1 day after application, assessed 7-9 days after application
Procedure: Puccinia recondita f. sp. Tritici/Wheat/Leaf Disc Preventative (Brown Rust): Wheat leaf segments cultivated variety (cv) Kanzler were placed on agar in 24-well plates and sprayed with formulated test compound diluted in water at an application rate of 200 ppm. The leaf disks were inoculated with a spore suspension of the fungus 1 day after application. The inoculated leaf segments were incubated at 19° C. and 75% relative humidity under a light regime of 12/12 h (light/dark) in a climate cabinet and the activity of a compound was assessed as percent disease control compared to untreated when an appropriate level of disease damage appears in untreated check leaf segments (7-9 days after application). […]-2.508; 5.561; 2.561; 2.513; 2.559; 2.556; 2.555; 2.374; 2.544; 2.537; 2.530; 2.525 (fraction B); 2.519; 2.516; 2.514; E/E-5.167; E/E-3.002; 2.512; E/E-2.507

C/C(=N/OCC(C)(C)CO/N=C1\CCCc2ccc(C)nc21)c1ccccn1 [Compound 2.519]
≥ 80%: inhibition of growth at up to 200 µg/mL [1] | inhibition of growth at up to 200 µg/mL [2] | inhibition of growth at up to 200 µg/mL [3] | inhibition of growth at up to 200 µg/mL [4] | pest or weed control at 200 ppm [5]

COc1cccc(/C(C)=N/OCC(C)(C)CO/N=C2\CCCc3ccc(C)nc32)n1 [Compound 2.374]
≥ 80%: inhibition of growth at up to 200 µg/mL [2] | inhibition of growth at up to 200 µg/mL [3] | inhibition of growth at up to 200 µg/mL [4] | pest or weed control at 200 ppm [5]

C/C(=N\OCC(C)(C)CO/N=C1\CCCc2ccc(Oc3ccccc3)nc21)c1cc(C)cc(C)n1 [Compound 2.556]
≥ 80%: inhibition of growth at up to 200 µg/mL [2] | inhibition of growth at up to 200 µg/mL [3] | inhibition of growth at up to 200 µg/mL [4] | pest or weed control at 200 ppm [5]

C/C(=N\OCC(C)(C)CO/N=C1\CCCc2c1nc1ccccc1c2C)c1cc(C)cc(C)n1 [Compound 2.561]
≥ 80%: inhibition of growth at up to 200 µg/mL [1] | inhibition of growth at up to 200 µg/mL [2] | inhibition of growth at up to 200 µg/mL [3] | pest or weed control at 200 ppm [5]

C/C(=N\OCC(C)(C)CO/N=C1\CCCc2ccc(C)nc21)c1cccc(Br)n1 [E/E-2.508]
≥ 80%: inhibition of growth at up to 200 µg/mL [1] | inhibition of growth at up to 200 µg/mL [2] | inhibition of growth at up to 200 µg/mL [3] | inhibition of growth at up to 200 µg/mL [4] | pest or weed control at 200 ppm [5]

C/C(=N\OCC(C)(C)CO/N=C1\CCCc2ccc(C)nc21)c1ccc2ccccc2n1 [Compound 2.512]
≥ 80%: inhibition of growth at up to 200 µg/mL [1] | inhibition of growth at up to 200 µg/mL [2] | inhibition of growth at up to 200 µg/mL [3] | inhibition of growth at up to 200 µg/mL [4] | pest or weed control at 200 ppm [5]

C/C(=N\OCC(C)(C)CO/N=C1\CCCc2ccc(C)nc21)c1ccc2c(n1)CCCC2 [Compound 2.513]
≥ 80%: inhibition of growth at up to 200 µg/mL [1] | inhibition of growth at up to 200 µg/mL [2] | inhibition of growth at up to 200 µg/mL [3] | inhibition of growth at up to 200 µg/mL [4] | pest or weed control at 200 ppm [5]

C/C(=N\OCC1(CO/N=C2\CCCc3ccc(C)nc32)CC1)c1cc(C)cc(C)n1 [E/E-5.167]
≥ 80%: inhibition of growth at up to 200 µg/mL [2] | inhibition of growth at up to 200 µg/mL [3] | inhibition of growth at up to 200 µg/mL [4] | pest or weed control at 200 ppm [5]

C/C(=N\OCCCO/N=C1\CCCc2ccc(C)nc21)c1cccc(-c2ccccc2)n1 [Compound 2.514]
≥ 80%: inhibition of growth at up to 200 µg/mL [1] | inhibition of growth at up to 200 µg/mL [2] | inhibition of growth at up to 200 µg/mL [3] | inhibition of growth at up to 200 µg/mL [4] | pest or weed control at 200 ppm [5]

Cc1ccc(O)c(/C=N/OCC(C)(C)CO/N=C2\CCCc3ccc(C)nc32)n1 [Compound 2.533]
≥ 80%: inhibition of growth at up to 200 µg/mL [1] | inhibition of growth at up to 200 µg/mL [2] | inhibition of growth at up to 200 µg/mL [3] | inhibition of growth at up to 200 µg/mL [4]

C/C(=N\OCC(C)(C)CO/N=C1\CCCc2ccc(-c3cccc(C)n3)nc21)c1cc(C)cc(C)n1 [Compound 2.559]
≥ 80%: inhibition of growth at up to 200 µg/mL [1] | inhibition of growth at up to 200 µg/mL [2] | inhibition of growth at up to 200 µg/mL [3] | inhibition of growth at up to 200 µg/mL [4] | pest or weed control at 200 ppm [5]

CC/C(=N\OCC(C)(C)CO/N=C1\CCCc2ccc(C)nc21)c1ccccn1 [Compound 2.516]
≥ 80%: inhibition of growth at up to 200 µg/mL [1] | inhibition of growth at up to 200 µg/mL [2] | inhibition of growth at up to 200 µg/mL [3] | inhibition of growth at up to 200 µg/mL [4] | pest or weed control at 200 ppm [5]

Cc1ccc2c(n1)/C(=N/OCC(C)(C)CO/N=C/c1cccc(Oc3ccccc3)n1)CCC2 [Compound 2.530]
≥ 80%: inhibition of growth at up to 200 µg/mL [1] | inhibition of growth at up to 200 µg/mL [2] | inhibition of growth at up to 200 µg/mL [3] | inhibition of growth at up to 200 µg/mL [4] | pest or weed control at 200 ppm [5]

C/C(=N\OCC(C)(C)CO/N=C1\CCCc2ccc(C)nc21)c1cc(C)cc(C)n1 [E/E-2.168]
≥ 80%: inhibition of growth at up to 200 µg/mL [1] | inhibition of growth at up to 200 µg/mL [2] | inhibition of growth at up to 200 µg/mL [3] | inhibition of growth at up to 200 µg/mL [4] | pest or weed control at 200 ppm [5]

C/C(=N\OCC(C)(C)CO/N=C1\CCCc2ccc(C)nc21)c1cccc(C)n1 [E/E-2.002]
≥ 80%: inhibition of growth at up to 200 µg/mL [1] | inhibition of growth at up to 200 µg/mL [2] | inhibition of growth at up to 200 µg/mL [3] | inhibition of growth at up to 200 µg/mL [4] | pest or weed control at 200 ppm [5]

Cc1cccc(/C(=N/OCC(C)(C)CO/N=C2\CCCc3ccc(C)nc32)c2ccccc2)n1 [E/E-2.474]
≥ 80%: inhibition of growth at up to 200 µg/mL [1] | inhibition of growth at up to 200 µg/mL [2] | inhibition of growth at up to 200 µg/mL [3] | inhibition of growth at up to 200 µg/mL [4] | pest or weed control at 200 ppm [5]

C=C(CO/N=C(\C)c1cccc(C)n1)CO/N=C1\CCCc2ccc(C)nc21 [E/E-3.002]
≥ 80%: inhibition of growth at up to 200 µg/mL [2] | inhibition of growth at up to 200 µg/mL [3] | pest or weed control at 200 ppm [5]

C/C(=N\OCC1(CO/N=C2\CCCc3c2nc2ccccc2c3C)CC1)c1cc(C)cc(C)n1 [Compound 5.561]
≥ 80%: inhibition of growth at up to 200 µg/mL [1] | inhibition of growth at up to 200 µg/mL [2] | inhibition of growth at up to 200 µg/mL [3] | pest or weed control at 200 ppm [5]

C/C(=N\OCC(C)(C)CO/N=C1\CCCc2ccc(Cl)nc21)c1cc(C)cc(C)n1 [Compound 2.555]
≥ 80%: inhibition of growth at up to 200 µg/mL [2] | inhibition of growth at up to 200 µg/mL [3] | inhibition of growth at up to 200 µg/mL [4] | pest or weed control at 200 ppm [5]

Cc1ccc2c(n1)/C(=N/OCC(C)(C)CO/N=C/c1ccc3ccccc3n1)CCC2 [E/E-2.507]
≥ 80%: inhibition of growth at up to 200 µg/mL [1] | inhibition of growth at up to 200 µg/mL [2] | inhibition of growth at up to 200 µg/mL [3] | inhibition of growth at up to 200 µg/mL [4] | pest or weed control at 200 ppm [5]
